Broadly, the pIC50 is the negative decadic logarithm of the IC50, by convention in mol/L.

The values below come from patent publication US20250214969A1, “PROTEIN DEGRADERS AND USES THEREOF” (Kymera Therapeutics, Inc., priority 2022, published 2025).

Assay [1] has as its target T1, truncated His-MBP-Tev-KLHDC2 (residues 1-363) (Homo sapiens, UniProt Q9Y2U9).
T1 construct: truncated His -MBP-Tev-KLHDC2 (residues 1-363) purified from E. coli; made in house; host or cells: E. coli
T1 sequence (Q9Y2U9 1-363): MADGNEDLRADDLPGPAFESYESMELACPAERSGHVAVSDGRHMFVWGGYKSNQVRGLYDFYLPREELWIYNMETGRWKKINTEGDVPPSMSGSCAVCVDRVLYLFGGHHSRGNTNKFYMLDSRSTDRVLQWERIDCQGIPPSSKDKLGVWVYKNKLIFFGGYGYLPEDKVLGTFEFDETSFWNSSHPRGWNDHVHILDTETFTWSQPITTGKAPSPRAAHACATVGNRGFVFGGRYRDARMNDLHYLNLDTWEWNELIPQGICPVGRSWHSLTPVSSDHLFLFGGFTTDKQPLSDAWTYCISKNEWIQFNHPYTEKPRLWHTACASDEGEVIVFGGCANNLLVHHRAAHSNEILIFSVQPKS
Description: KLHDC2 FP competition binding assay. The settings on record: 15 nM KLHDC2 (residues 1-363), 10 nM fluorescein-labeled diglycine peptide probe, read-out: KLHDC2 binding Human FP: average external IC50.

The target in assay [2] is T1, truncated His-MBP-Tev-KLHDC2 (residues 1-363). Description: KLHDC2 HTRF binding assay. The settings on record: 1 nM KLHDC2 (residues 1-363), fluorescein-labeled diglycine peptide probe.

pIC50: −log10 of the molar value.

As to `CCOC(=O)Cn1cc(NC(=O)c2ccc(CCCCCCN)c(-c3cccnc3)c2)ccc1=O` [I-147], the pIC50 in assay [1] and in assay [2] was less than 5.30 each time.

Take `COc1cc(-c2nccs2)ccc1C(=O)Nc1ccc(=O)n(CC(=O)O)c1` [I-148]: the negative-log IC50 (pIC50) in assay [1] and in assay [2] was 5.30 to 6.30 in each case.

In the case of `COc1cc(-c2ccccn2)ccc1C(=O)Nc1ccc(=O)n(CC(=O)O)c1` [I-149], the pIC50 in assay [1] and in assay [2] was 5.30 to 6.30 in each case.

On to `CCOC(=O)Cn1cc(NC(=O)c2ccc(CCCCCCNC(=O)OC(C)(C)C)c(-c3cccnc3)c2)ccc1=O` [I-150], for which the pIC50 in assay [1] and in assay [2] was less than 5.30 throughout.

Take `Nc1ccc2cc(C(=O)Nc3ccc(=O)n(CC(=O)O)c3)ccc2c1` [I-151]: the negative-log IC50 (pIC50) in assay [1] was less than 5.30; in assay [2], 5.30 to 6.30.

On to `CCOC(=O)Cn1cc(NC(=O)c2cccc(-c3cnccc3CCCCCCN)c2)ccc1=O` [I-152], for which the pIC50 in assay [1] and in assay [2] was less than 5.30 each time.

In the case of `COc1cc(-c2cccs2)ccc1C(=O)Nc1ccc(=O)n(CC(=O)O)c1` [I-153], the pIC50 in assay [1] and in assay [2] was 5.30 to 6.30 each time.

Turning to `COc1cc(-c2cncs2)ccc1C(=O)Nc1ccc(=O)n(CC(=O)O)c1` [I-154], the pIC50 in assay [1] was less than 5.30; in assay [2], 5.30 to 6.30.

For `COc1cc(-c2ccc(F)cc2)ccc1C(=O)Nc1ccc(=O)n(CC(=O)O)c1` [I-155], the negative logarithm of the IC50 (pIC50) in assay [1] is 5.30 to 6.30; in assay [2] it was 6.30 to 7.30.

As to `CCOC(=O)Cn1cc(NC(=O)c2cccc(-c3cnccc3CCCCCCNC(=O)OC(C)(C)C)c2)ccc1=O` [I-156], the negative logarithm of the IC50 (pIC50) in assay [1] and in assay [2] was less than 5.30 throughout.

For `CCOC(=O)Cn1cc(NC(=O)c2cc(CCCCCCN)cc(-c3cccnc3)c2)ccc1=O` [I-157], the pIC50 in assay [1] and in assay [2] was less than 5.30 throughout.

In the case of `CCOC(=O)Cn1cc(NC(=O)c2cccc(-c3cncc(CCCCCCNC(=O)OC(C)(C)C)c3)c2)ccc1=O` [I-158], the negative logarithm of the IC50 (pIC50) in assay [1] and in assay [2] was less than 5.30 in each case.

On to `CCOC(=O)Cn1cc(NC(=O)c2cccc(-c3cncc(CCCCCCN)c3)c2)ccc1=O` [I-159], for which the negative logarithm of the IC50 (pIC50) in assay [1] and in assay [2] was less than 5.30 in each case.

As for `CC(C)(C)OC(=O)NCCCCCCn1ccc2c(C(=O)Nc3ccc(=O)n(CC(=O)O)c3)cccc21` [I-160], the pIC50 in assay [1] is 5.30 to 6.30; in assay [2] it was 6.30 to 7.30.

Regarding `O=C(O)Cn1cc(NC(=O)c2ccc(-c3ccccc3)cc2F)ccc1=O` [I-161], the pIC50 in assay [1] and in assay [2] was 5.30 to 6.30 in each case.

For the compound `CCOC(=O)Cn1cc(NC(=O)c2cc(CCCCCCNC(=O)OC(C)(C)C)cc(-c3cccnc3)c2)ccc1=O` [I-162], the pIC50 in assay [1] and in assay [2] was less than 5.30 in each case.

Take `NCCCCCCc1ccncc1-c1cccc(C(=O)Nc2ccc(=O)n(CC(=O)O)c2)c1` [I-163]: the negative-log IC50 (pIC50) in assay [1] and in assay [2] was 5.30 to 6.30 in each case.

Turning to `CC(C)(C)OC(=O)NCCCCCCc1ccncc1-c1cccc(C(=O)Nc2ccc(=O)n(CC(=O)O)c2)c1` [I-164], the negative-log IC50 (pIC50) was 5.30 to 6.30 in assay [1] and 6.30 to 7.30 in assay [2].

`CC(C)(C)OC(=O)NCCCCCCc1cc(C(=O)Nc2ccc(=O)n(CC(=O)O)c2)cc(-c2cccnc2)c1` [I-165]: the pIC50 in assay [1] is 6.30 to 7.30; in assay [2], greater than 7.30.

`NCCCCCCc1cc(C(=O)Nc2ccc(=O)n(CC(=O)O)c2)cc(-c2cccnc2)c1` [I-166]: the negative-log IC50 (pIC50) in assay [1] and in assay [2] was 5.30 to 6.30 in each case.

On to `NCCCCCCc1cncc(-c2cccc(C(=O)Nc3ccc(=O)n(CC(=O)O)c3)c2)c1` [I-167], for which the negative-log IC50 (pIC50) is 5.30 to 6.30 in assay [1] and 6.30 to 7.30 in assay [2].

Consider `O=C(O)Cn1cc(NC(=O)c2cccc(-c3cncs3)c2)ccc1=O` [I-168], for which the figures for the negative logarithm of the IC50 (pIC50) in assay [1] and in assay [2] were less than 5.30 and 5.30 to 6.30, respectively.

On to `CC(C)(C)OC(=O)NCCCCCCc1cncc(-c2cccc(C(=O)Nc3ccc(=O)n(CC(=O)O)c3)c2)c1` [I-169], for which the results for the negative-log IC50 (pIC50) in assay [1] and in assay [2] were 6.30 to 7.30 and greater than 7.30, respectively.

For the compound `Cc1ccc(C(=O)Nc2ccc(=O)n(CC(=O)O)c2)nc1-c1cccnc1` [I-170], the figures for the pIC50 in assay [1] and in assay [2] were less than 5.30 and 5.30 to 6.30, respectively.

On to `Cc1cc(C(=O)Nc2ccc(=O)n(CC(=O)O)c2)sc1-c1cccnc1` [I-171], for which the pIC50 in assay [1] and in assay [2] was less than 5.30 in each case.

In the case of `O=C(O)Cn1cc(NC(=O)c2cccc(-c3cccs3)c2)ccc1=O` [I-172, 2-(2-oxo-5-(3-(thiophen-2-yl)benzamido)pyridin-1 (2H)-yl) acetic acid], the pIC50 in assay [1] and in assay [2] was less than 5.30 in each case.

For `Cc1ccc(C(=O)Nc2ccc(=O)n(CC(=O)O)c2)nc1-c1ccccc1` [I-173], the values for the negative logarithm of the IC50 (pIC50) in assay [1] and in assay [2] were less than 5.30 and 5.30 to 6.30, respectively.

Consider `CC(C)c1ccc(C(=O)Nc2ccc(=O)n(CC(=O)O)c2)cc1-c1cccnc1` [I-174], for which the pIC50 in assay [1] and in assay [2] was 5.30 to 6.30 throughout.

Regarding `CC(C)c1ccc(C(=O)Nc2ccc(=O)n(CC(=O)O)c2)cc1-c1ccccc1` [I-175], the negative logarithm of the IC50 (pIC50) in assay [1] is less than 5.30; in assay [2], 5.30 to 6.30.

On to `O=C(O)Cn1cc(NC(=O)c2ccc3nc(Cl)ccc3c2)ccc1=O` [I-176], for which the pIC50 in assay [1] and in assay [2] was less than 5.30 in each case.

Regarding `O=C(O)Cn1cc(NC(=O)c2ccc3cc(Cl)ccc3c2)ccc1=O` [I-177], the pIC50 in assay [1] is less than 5.30; in assay [2] it was 5.30 to 6.30.

With `Cn1cc(-c2cccc(C(=O)Nc3ccc(=O)n(CC(=O)O)c3)c2)ccc1=O` [I-178], the pIC50 in assay [1] and in assay [2] was less than 5.30 each time.

As for `CC(C)c1ccc(S(=O)(=O)NCCC(=O)Nc2ccc(=O)n(CC(=O)O)c2)cc1` [I-180], the pIC50 in assay [1] and in assay [2] was less than 5.30 throughout.

Consider `CCc1ccc(C(=O)Nc2ccc(=O)n(CC(=O)O)c2)cc1-c1cccnc1` [I-181], for which the pIC50 in assay [1] is less than 5.30; in assay [2], 5.30 to 6.30.

In the case of `CCc1ccc(C(=O)Nc2ccc(=O)n(CC(=O)O)c2)cc1-c1ccccc1` [I-182], the pIC50 in assay [1] was less than 5.30; in assay [2], 5.30 to 6.30.

For `O=C(O)Cn1cc(NC(=O)[C@H]2CC[C@H](NC(=O)C3CCCC3)CC2)ccc1=O` [I-183], the negative-log IC50 (pIC50) in assay [1] and in assay [2] was less than 5.30 throughout.

Take `O=C(O)CC(C(=O)n1ccc2ccccc21)c1ccc(=O)n(CC(=O)O)c1` (stereo not shown) [I-184]: the pIC50 in assay [1] and in assay [2] was less than 5.30 in each case.

For `O=C(O)Cn1cc(NC(=O)c2ccc(-c3ccccc3)c(Cl)c2)ccc1=O` [I-185], the pIC50 is less than 5.30 in assay [1] and 5.30 to 6.30 in assay [2].

For `COc1nc2ccccc2cc1C(=O)Nc1ccc(=O)n(CC(=O)O)c1` [I-186], the pIC50 in assay [1] and in assay [2] was less than 5.30 each time.

With `Cc1ccc2nc(C(=O)Nc3ccc(=O)n(CC(=O)O)c3)ccc2c1` [I-187], the pIC50 in assay [1] and in assay [2] was less than 5.30 in each case.

In the case of `CCCOc1nc2ccccc2cc1C(=O)Nc1ccc(=O)n(CC(=O)O)c1` [I-188], the negative-log IC50 (pIC50) in assay [1] and in assay [2] was less than 5.30 each time.

With `Cc1ccc2cc(C(=O)Nc3ccc(=O)n(CC(=O)O)c3)cnc2c1` [I-189], the negative logarithm of the IC50 (pIC50) in assay [1] and in assay [2] was less than 5.30 each time.

`O=C(O)Cn1cc(NC(=O)CCNC(=O)c2ccc3ccccc3c2)ccc1=O` [I-190]: the negative-log IC50 (pIC50) in assay [1] and in assay [2] was less than 5.30 throughout.

For `Cc1ccc2cc(C(=O)Nc3ccc(=O)n(CC(=O)O)c3)c(C)nc2c1` [I-191], the negative-log IC50 (pIC50) in assay [1] and in assay [2] was less than 5.30 throughout.
